How the values were obtained:
[1] = test system: Rat Limb Bones (PTH induced bone resorption); experiment: Bone Resorption Assay: 45Ca Release from Rat Limb Bones (PTH Induced); type: cell-based, rat (Sprague-Dawley CD)
Procedure: The purpose of this assay is to identify compounds that inhibit basal or stimulated bone resorption in culture.
The ability of 2-substituted-imidazo[4,5-c]pyridines to modify the process of bone resorption was evaluated essentially as described by L.G. Raisz, Bone resorption in tissue culture. Factors influencing the response to parathyroid hormone.
Timed pregnant Sprague-Dawley CD® rats (Charles River) are administered 100 μCi ^45 CaCl2 (NEN calcium -45 NEZ-013) in 100 μL of 0.9% saline, subcutaneously, on day 18 of gestation. The rats are sacrificed the following day by CO2 asphyxiation. The fetuses are removed and the right forelimbs excised and placed in a Petri dish containing ice cold explant medium consisting of modified BGJb -Fitton Jackson media (custom formulation, Gibco No. 78-0088) adjusted to pH 7.3 to which 10 mM TES is added. […] Under a dissecting microscope, the bones are gently cleaned of adherent tissue and the cartilaginous ends removed. Incubation and drug treatment. […] The preincubation medium is brought to 37° C. prior to transfer of bones. The preincubation medium consists of the modified BGJb medium (with salts and glucose as above), pH 7.3, containing 29 mM NaHCO3. […] For compounds that require nonaqueous solvents, dilutions are made from the appropriate stock solution with medium. In these instances, basal and bone resorption stimulated controls exposed to an equivalent concentration of the vehicle are included. […] The right ulna and radius from each fetus are used. Both bones are subjected to the same treatment and each treatment group consists of bones from 4 or more fetuses. Treatments are randomly assigned using a preclinical statistics program (PS-ALLOC). After a 48 hour incubation at 37° C. in 5% CO2, the bones are removed from the medium and extracted in 0.5 mL of 0.1N HCl for 1 or more days. Duplicate 150 μL aliquots of the incubation medium and the bone extract are analyzed for ^45 Ca radioactivity in 5 mL of liquid scintillation cocktail.
The percentage of bone ^45 Ca released into the medium is determined as follows: [formula] […]

[2] = test system: osteopenia induced by denervation of the sciatic nerve in rats; experiment: Denervation Induced Osteopenia in Rats; type: in vivo, rat (female Sprague Dawley CD)
Source text: The purpose of this assay is to evaluate the effect, in rats, of agents on the reduction in bone mass (osteopenia) induced by immobilization resulting from surgical severance (denervation) of the sciatic nerve.
The animals are housed in plastic cages (4 or 5 rats/cage) with food (rat purina 500 chow) and water ad libitum; 14/10 day/night cycle.
After one week of in-house acclimatization, the animals are randomly divided into groups of 6 to 10 rats/group. Each rat is weighed, anesthetized with an intraperitoneal administration of 100 mg/kg ketamine (Bristol Laboratories, Syracuse, N.Y.) and 0.75 mg/kg Acepromazine (Aveco, Ft. Dodge, Iowa). The left hind limb is shaved and denervated by making a lateral incision parallel to the femur and by surgically removing half of a centimeter of the sciatic nerve adjacent to caudofemoralis and adductor brevis muscles. The incision is closed with wound clips. After surgery, the rats are housed in cages with absorbent bedding to minimize additional trauma to the immobilized limb. A 24 hour post-surgery recovery period is allowed before the initiation of the drug treatment.
The concentration of the drug stock is calculated to be delivered in a volume of 0.1 mL/100 gram body weight. The drug solution or a uniform suspension is prepared in 1% Tween 80 in normal saline. The drugs are administered via oral or parenteral routes daily (five times a week) for four weeks.
A sequential triple labeling of mineralized tissue is employed to determine the osseous changes (especially the bone formation) and the mineralization rates. Each animal is administered 90 mg/kg Xylenol orange (Fisher Scientific Company), S.C., 15 mg/kg Calcein (Sigma Chemical Company), S.C. and 15 mg/kg Demeclocycline (Sigma Chemical Company), i.p., approximately 21 days, 10 days and 2 days prior to the termination of the study, respectively.
At the end of the fourth week, each rat is weighed, anesthetized with an intraperitoneal administration of 100 mg/kg ketamine with 0.75 mg/kg Acepromazine and approximately 4 mL of blood collected via cardiac puncture. The anesthetized rats are euthanized by exposure to carbon dioxide. The femora and tibiae from both limbs are dissected free of soft tissue. (i) Femora are ashed at ~1100° C. for 16 hours using a muffle furnace. --(ii) Proximal tibia are fixed, dehydrated and embedded undecalcified in a methyl methacrylate-glycol methacrylate mixture. Longitudinal tissue sections (10 microns) are prepared on a Polycut S microtome (Reichert). Staining is performed on free-floating sections using a modified Goldner's stain, which are then mounted and coverslipped.
Cancellous bone content in the proximal tibia is quantified (as two dimensional bone mineral area [B.Ar]) with an image analysis processing device (software developed by Drexel University).
The areas of the tibia selected for cancellous bone content evaluation are the primary and secondary spongiosa. To select and standardize this area for evaluation, the epiphyseal growth plate-metaphyseal junction is oriented parallel to the abscissa of the digitizing screen. Bone elements 1.7 mm (secondary spongiosa) and 0.2 mm (primary spongiosa) from the growth plate and equidistant from the flanking cortical elements are then quantified as described above. The total area evaluated is 2.30 mm wide and 1.45 mm deep, constituting a 3.34 mm^2 area.
Body weight, femur mass (dried or ashed) and trabecular (cancellous) bone mineral area (B.Ar) are determined.
The difference (both absolute and percent change) in femur mass and bone mineral area between intact (control) and denervated limbs of a treatment group are compared with that for the vehicle group using a one-way analysis of variance with Dunnett's test, or other multiple comparison methods.
The results are reported in Table I and II under the heading In Vivo.

[3] = test system: Rat Limb Bones (basal bone resorption); experiment: Basal Bone Resorption Assay: 45Ca Release from Rat Limb Bones; type: cell-based; conditions: 10 μg/mL
Source text: The purpose of this assay is to test stimulators and inhibitors of bone resorption in vitro. The release of ^45 Ca from in vitro labeled murine bone explants into the culture media is taken as an index of bone resorption.
Rat pups are labelled […] by injecting pregnant dams (18 days) with 100 μCi of ^45 Ca.
Two days after the initiation of labelling, the dam is anesthetized with halothane and killed by cervical dislocation. The pups are ablated and quickly decapitated. The calvaria (frontal and parietal bones), forelimbs (containing radii and ulnae), and hind limbs (tibiae) are removed and placed in control media in a petri dish. Bones are debrided of soft tissue by a combination of blunt dissection, and gentle rolling on bibulous paper, taking care not to disturb the periosteum. Cartilaginous ends are cut off long bones. Calvaria are cut in half along midline suture. Bones are separated into 3 categories: calvaria halves, Tibiae and ulnae/radii. Groups of eight (per bone group) are randomly placed in 24-well culture plates containing 0.5 mL of control media. Cultures are maintained at 37° C. in a humidified incubator of 95% air: 5% CO2.
These bones are incubated for 24 hours, media is aspirated from the bones and replaced with fresh media containing test substances. Each bone group has a control group of 8 and a dead bone group of 8. The devitalized cultures are obtained by heating the bones in medium at 55° C. for 60 minutes. The bones are incubated at 37° C. for an additional 72 hours. At the end of this period a 100 microliter aliquot of media is removed and placed in a scintillation vial. Ten mL of Aquasol is added, the ^45 Ca is quantified in a scintillation spectrometer. Bones are rinsed in saline, placed in a scintillation vial, hydrolyzed overnight in 0.75 mL 6N HCl at room temperature. The hydrolyzed bone solution is neutralized by the addition of 2.25 mL of 2N NaOH, followed by 10 mL of Aquasol, the ^45 Ca content is determined by scintillation spectrometry.
Analysis: ^45 Ca release into culture medium from the 24-96 hour period is individually compared to ^45 Ca release in control cultures and to devitalized bone via Dunnett's test. […]

Compound | Inhibition of Bone Resorption, PTH Induced ([1]; Table I, 10 μg/mL) | Inhibition of Bone Resorption, In Vivo ([2]; po, 672 h) | Inhibition of Bone Resorption, Basal ([3]; Table I) | Inhibition of Bone Resorption, PTH Induced ([1]; Table II, 10 μg/mL) | Inhibition of Bone Resorption, Basal ([3]; Table II) | other results
[O-][S+](Cc1ccc(F)c(F)c1)c1nc2cnccc2[nH]1 (stereo not shown) [Example 31, 2-[[(3,4-Difluorophenyl)methyl]sulfinyl]-1H-imidazo[4,5-c]-pyridine-One Tenth Hydrate] | Active | Inactive | Active | – | – | –
COc1cccc(CS(=O)(=O)c2nc3cnccc3[nH]2)c1 [Example 4] | Active | Inactive | Marginal | – | – | –
Fc1ccc(CSc2nc3cnccc3[nH]2)cc1F [Example 30, 2-[[(3,4-Difluorophenyl)methyl]thio]-1H-imidazo[4,5-c]pyridine] | – | – | – | Inactive | Inactive | Inhibition of Bone Resorption, In Vivo ([2]; Table II, 25 mg/kg, p.o.): Inactive
COc1cccc(C[S+]([O-])c2nc3cnccc3[nH]2)c1 (stereo not shown) [Example 3, 2-[[(3-Methoxyphenyl)methyl]sulfinyl]-1H-imidazo[4,5-c]pyridine] | – | Active | Active | – | – | IC50 ([1]; Rattus norvegicus, Table I, read-out: Inhibition of Bone Resorption, PTH Induced IC50): 49 µM; Inhibition of Bone Resorption, PTH Induced ([1]; Table I, concentration not given): Active
COc1cccc(CC[S+]([O-])c2nc3cnccc3[nH]2)c1 (stereo not shown) [Example 17, 2-[[(3 -Methoxyphenyl)ethyl]sulfinyl]-1H-imidazo[4,5-c]pyridine] | Active | – | Inactive | – | – | Inhibition of Bone Resorption, In Vivo ([2]; Table I, no dose given, oral or parenteral daily (five times a week) for four weeks): Borderline
COc1cccc(CSc2nc3cnccc3[nH]2)c1 [Example 2, 2-[[(3-Methoxyphenyl)methyl]thio]-1H-imidazo[4,5-c]pyridine] | – | – | – | Inactive | Inactive | Inhibition of Bone Resorption, In Vivo ([2]; Table II, 25 mg/kg, i.p.): Active
